Patent US10660933B2, “Compositions and methods for inhibition of bacterial infections in human endocervix” (priority 2015, dated 2020)

Tests used:
polarized T84 cells [1] = assay: Exfoliation of polarized T84 cells treated with inhibitors alone, without Ng; assay type: cell-based, human; details: no Ng inoculation, 6 h
Method: Polarized T84 cells were treated with inhibitors for 6 h, fixed, stained to visualize the cell nuclei, and imaged by 3D-CFM. The percentage of cell moving above the epithelial monolayer (dash lines) was determined from three independent experiments. Scale bar, 5 μm. *p≤0.05.
(§1) Immunofluorescence analysis of polarized epithelial cells. Cells were pretreated with or without NMII kinase inhibitors, Y27632 (10 μM, EMD Millipore), ML-7 (10 μM, EMD Millipore) and PIK (100 μM) or Ca2+ inhibitors, 2APB (10 μM, EMD Millipore) and BAPTA (50 μM, EMD Millipore) for 1 h, and incubated with Ng in the presence or absence of the inhibitors for 6 h. Cell were washed and fixed with 4% paraformaldehyde, permeabilized with 1% Triton X100, and stained with anti-E-cadherin (BD Bioscience), anti-pMLC (Cell Signaling Technology, Carlsbad, Calif.), anti-Ng antibodies, and DAPI for nuclei. Cells were analyzed by CFM. Images were acquired as Z-series of 0.37 μm slices, and 3D composites obtained. Epithelial exfoliation will be quantified using xz images as described for the tissue explants. The distribution of E-cadherin and pMLC was quantitatively analyzed by measuring the FIR at the apical junctional to the cytoplasmic area (from xy images) or at the apical to lateral surface area (from xz images) in individual cells.

[2] = system: phosphorylated myosin light chain (pMLC); assay: pMLC (active NMII) redistribution in Ng-inoculated polarized T84 cells (3D-CFM); assay type: cell-based, human; details: for junction:non-junction FIR of pMLC: polarized T84, Ng 6 h (Y27632: MS11ΔOpa)
Method: Ng induce and Opa suppresses the redistribution of active non-muscle myosin II in polarized and endocervical epithelial cells. […] We examined the cellular distribution of active NMII after 6-h incubation with Ng, using antibody specific for phosphorylated myosin light chain (pMLC) and 3D-CFM. In uninfected polarized T84 (FIGS. 5A and 5C) and HEC-1-B cells (FIG. 10), pMLC was primarily localized at the apical junction. The polarized distribution of pMLC at the apical surface was quantified by the FIR of pMLC at the apical to the lateral (Apical:Lateral) membrane areas in individual cells using CFM images scanning across the apical and basolateral surfaces (FIGS. 5A and 5B). The polarized distribution pMLC at the apical junction was quantified by the FIR of pMLC at the junction to non-junction (Junction:Non-junction) areas of the apical region using CFM images scanning through the apical junction (FIGS. 5C and 5D). The apical inoculation of MS11Opa+ and MS11ΔOpa caused significant increases in apical:lateral FIR in both polarized T84 (FIGS. 5A and 5B) and HEC-1-B cells (FIG. 10), compared to the no Ng control. There were also significant increases in the junction:non-junction FIR in infected polarized T84 cells, compared to non-infected cells (FIGS. 5C and 5D). […] We further noticed that NMII at the apical surface appeared to accumulate at Ng adherent sites (FIG. 5A, middle panels, arrows).
as §1

cytoplasmic Ca2+ = assay: Calcium imaging of Ng-inoculated polarized epithelial cells (FluoForte, Fluo-4); assay type: cell-based, human; details: MS11Opa+ and MS11ΔOpa-inoculated polarized epithelial cells, 4 h; 2APB 10 μM, BAPTA 50 μM
From the text: Ng inoculation induces Ca^2+-dependent redistribution of active NMII in polarized epithelial cells. A major upstream signaling molecule of MLCK is calmodulin that is activated by Ca^2+. To investigate if Ca^2+ is involved in Ng induced redistribution of active NMII, we determined if Ng inoculation would induce Ca^2+ flux in polarized epithelial cells. We used two Ca^2+ indicators, FluoForte (FIGS. 7A and 7B) and Fluo-4 (FIG. 11) to determine the cytoplasmic Ca^2+ level. Polarized T84 (FIGS. 7A and 7B, and FIG. 11A and FIG. 11B) and HEC-1-B (FIG. 11C and FIG. 11D) were incubated apically with MS11Opa+ or MS11ΔOpa for 4 h. The cells were then loaded with the fluorescent Ca^2+ indicator, and the cell membrane marked by the membrane dye CellMask. Cells were imaged using 3D-CFM (FIG. 7A, and FIGS. 11A and 11C). The mean fluorescence intensity (MFI) of the Ca^2+ dyes in individual cells was measured to estimate the cytoplasmic level of Ca^2+ (FIG. 7B, and FIGS. 11B and 11D). […]
Calcium imaging. […] To quantify the intracellular Ca^2+ level, the cytoplasmic region of individual cells was manually selected based on the CellMask staining in randomly acquired confocal images, and the mean fluorescent intensity (MFI) of Fluoforte and Fluo-4 in the cytoplasmic region was measured using the NIH ImageJ software.

[3] = system: Neisseria gonorrhoeae MS11; assay: Ng adherence, invasion, and transmigration assays on polarized epithelial cells; assay type: cell-based
Method: Ng adherence, invasion, and transmigration assays. The assays were performed as previously described. Briefly, polarized epithelial cells that were pretreated with or without the inhibitors for 1 h were incubated apically with Ng at 37° C. for 3 h for adherence and 6 h for invasion and transmigration assays with or without the inhibitors. Ng in the basolateral media were cultured and counted as transmigrated bacteria. Cells were washed and lysed to count adherent Ng. Cells were treated with gentamicin, washed, and lysed to count bacteria that were resistant to gentamicin treatment as invaded Ng.

polarized T84 cells [4] = assay: Ng-induced exfoliation of polarized T84 monolayers (3D-CFM); assay type: cell-based, human; details: 6 h, inhibitor 1 h before and during, ML-7 10 μM, PIK 100 μM, Y27632 10 μM
From the text: To quantify epithelial exfoliation, the number of Ng associated cells localized on the top of the epithelial monolayer (exfoliated) and the total number of Ng associated epithelial cells was counted by visual inspection in each randomly acquired image, to determine the percentage of exfoliated cells. To estimate the level of Ng penetration into the subepithelium, the number of non-exfoliated epithelial cells (in clearly visible epithelial monolayers) with basal Ng staining and the total number of Ng associated epithelial cells were visually counted to calculate the percentage of infected epithelial cells with Ng penetration into the basolateral side. To evaluate the disruption of the apical junction, the number of Ng associated epithelial cells that lost continuously apical staining of the junctional protein ZO1 and the total number of Ng associated epithelial cells were visually counted to calculate the percentage of Ng associated epithelial cells with apical junction disassembly. To quantify the redistribution of pMLC, the fluorescence intensity ratios (FIR) of pMLC staining at the apical to lateral in individual epithelial cells were determined using average FI as previously described.
as §1

[5] = ML-7 10 μM, PIK 100 μM, Y27632 10 μM, 2APB 10 μM, BAPTA 50 μM

Row | Compound | epithelial exfoliation with inhibitors alone (polarized T84 cells [1]) | accumulation of pMLC at Ng adherent sites ([2]; polarized T84, Ng 6 h) | junction:non-junction FIR of pMLC [2, 5] | apical:lateral FIR of pMLC ([2]; polarized T84, Ng 6 h, ML-7 10 μM, PIK 100 μM, Y27632 10 μM, 2APB 10 μM, BAPTA 50 μM) | MFI of the Ca2+ indicators (cytoplasmic Ca2+ level) (cytoplasmic Ca2+) | transmigration of MS11ΔOpa across the polarized T84 monolayer ([3]; 6 h, ML-7 10 μM, PIK 100 μM, 2APB 10 μM, Y27632 10 μM) | Ng adherence to polarized T84 cells ([3]; MS11ΔOpa, 3 h, with inhibitors) | Ng invasion into polarized T84 cells (gentamicin resistance) ([3]; MS11ΔOpa, 6 h, with inhibitors) | exfoliation of MS11Opa+-infected epithelial cells from T84 monolayers (polarized T84 cells [4]; MS11Opa+) | exfoliation of MS11ΔOpa-infected epithelial cells from T84 monolayers (polarized T84 cells [4]; MS11ΔOpa, 2APB 10 μM)
1 | Cc1ccc2c(c1)C(=O)C1(O)CCN(c3ccccc3)C1=N2 (centres unmarked) [blebbistatin] | increased epithelial exfoliation | – | – | – | – | – | – | – | – | –
2 | O=C(O)CN(CC(=O)O)c1ccccc1OCCOc1ccccc1N(CC(=O)O)CC(=O)O [BAPTA] | – | decreased | decreased | decreased | back to the basal level | – | – | – | – | –
3 | C[C@@H](N)[C@H]1CC[C@H](C(=O)Nc2ccncc2)CC1 [Y27632] | – | – | further increased | – | – | had no impact | had no impact | had no impact | did not significantly change the percentage of epithelial exfoliation | did not significantly change the percentage of epithelial exfoliation
